Laboratory results reported in publication PMC11491487 (Nature Communications, 2024).
“And” between values parts separate entries of the source, which are not always exact repeats. Equal values may be shown once.

Assays:
[1] = tested on: diamondback moth (Plutella xylostella); settings: in vivo; cited from earlier work
rRyR1 L4792S = target: T1, rRyR1 L4792S (Oryctolagus cuniculus, UniProt P11716, L4792S); assay: time-lapse [Ca2+]ER fluorescence assay, HEK293 cells; type: cell-based, rabbit; settings: n = 3
T1 construct: expressed in transfected cells

rRyR1 C4657I = target: T2, rRyR1 C4657I (Oryctolagus cuniculus, UniProt P11716, C4657I); assay: as above; type: cell-based, rabbit; settings: n = 3
T2 construct: expressed in transfected cells

chiRyR-I4657M/G4819E [2] = target: T3, chiRyR-I4657M/G4819E (Oryctolagus cuniculus, UniProt P11716, C4657M/F4564Y/G4819E/L4792S/R4563K); assay: cell-based; set-up: species or system rabbit
[3] = tested on: Drosophila melanogaster RyR G4915E; assay: Bioassay of gene-edited Drosophila melanogaster (feeding, mortality after 24 h); type: in vivo; set-up: key to LD50: AA.: All alive
Sf RyR = Sf RyR (Spodoptera frugiperda, UniProt A0A4P8L6R5); assay: time-lapse [Ca2+]ER fluorescence assay, HEK293 cells; type: cell-based
rRyR1 R4563K = target: T4, rRyR1 R4563K (Oryctolagus cuniculus, UniProt P11716, R4563K); assay: as above; type: cell-based, rabbit; settings: n = 3
T4 construct: expressed in transfected cells

Spodoptera frugiperda = tested on: Spodoptera frugiperda; set-up: method as in PMID 31157506; settings: in vivo; cited from earlier work
chiRyR [4] = target: T5, chiRyR (Oryctolagus cuniculus, UniProt P11716, C4657I/F4564Y/L4792S/R4563K); assay: biochemical; type: biochemical, rabbit
rRyR1 = rRyR1 (Oryctolagus cuniculus, UniProt P11716); assay: time-lapse [Ca2+]ER fluorescence assay, HEK293 cells; type: cell-based, rabbit
chiRyR-I4657M/G4819E [5] = target: T3, chiRyR-I4657M/G4819E; assay: biochemical; type: biochemical, rabbit
[6] = tested on: Drosophila melanogaster RyR M4758I; assay: Bioassay of gene-edited Drosophila melanogaster (feeding, mortality after 24 h); type: in vivo; settings: 24 h feeding, n = 30
chiRyR [7] = target: T5, chiRyR; assay: cell-based; set-up: species or system rabbit
Sf RyR_I4734M/G4891E = Sf RyR_I4734M/G4891E (Spodoptera frugiperda, UniProt A0A4P8L6R5, G4891E/I4734M); assay: cell-based

**Q.** What does the source list for `Cc1cc(C(F)(C(F)(F)F)C(F)(F)F)ccc1NC(=O)c1cccc(I)c1C(=O)NC(C)(C)CS(C)(=O)=O` [FLU, flubendiamide]?
**A.** fold decrease in sensitivity [1]: > 200 fold; EC50 (rRyR1 L4792S): 209 nM; EC50 (rRyR1 C4657I): 8.9 µM; F/F0 (chiRyR-I4657M/G4819E [2]; FLU 1e-5 uM): 0.9575 and 0.97 and 0.9884; F/F0 (chiRyR-I4657M/G4819E [2]; FLU 0.1 uM): 0.9705 and 0.977 and 1.0074; F/F0 (chiRyR-I4657M/G4819E [2]; FLU 0.5 uM): 0.9668 and 0.9819 and 0.9464; F/F0 (chiRyR-I4657M/G4819E [2]; FLU 1 uM): 0.9823 and 0.9988 and 0.9262; F/F0 (chiRyR-I4657M/G4819E [2]; FLU 10 uM): 0.9522 and 0.929 and 0.9507; F/F0 (chiRyR-I4657M/G4819E [2]; FLU 50 uM): 0.9714 and 0.9397 and 0.895; F/F0 (chiRyR-I4657M/G4819E [2]; FLU 100 uM): 0.9721 and 0.9871 and 0.9807; F/F0 (chiRyR-I4657M/G4819E [2]; FLU 200 uM): 0.9521 and 0.9361 and 0.9719; effect of the double mutation on activity (chiRyR-I4657M/G4819E [2]; time-lapse assay): almost completely abolished; LD50 ([3]; 24 h feeding, n = 30): AA.; lethality ([3]; in vivo): can no longer kill; F/F0 (Sf RyR; FLU 1e-5 uM): 0.9517 and 0.959 and 0.9803 and 0.9606 and 0.9626 and 0.9095; F/F0 (Sf RyR; FLU 0.0001 uM): 0.9669 and 0.9979 and 0.9587; F/F0 (Sf RyR; FLU 0.001 uM): 0.9934 and 1.004 and 1.015 and 1.0081 and 0.9724 and 0.9466; F/F0 (Sf RyR; FLU 0.005 uM): 0.9953 and 0.9503 and 0.9362; F/F0 (Sf RyR; FLU 0.01 uM): 0.964 and 0.9628 and 0.9439 and 0.9365 and 0.909 and 0.8287; F/F0 (Sf RyR; FLU 0.1 uM): 0.6874 and 0.7084 and 0.7834 and 0.606 and 0.5494 and 0.4561; F/F0 (Sf RyR; FLU 0.3 uM): 0.3286 and 0.3161 and 0.2878; F/F0 (Sf RyR; FLU 0.5 uM): 0.3948 and 0.4026 and 0.4259 and 0.3563 and 0.3618 and 0.3874; F/F0 (Sf RyR; FLU 1 uM): 0.4531 and 0.5278 and 0.593 and 0.346 and 0.3891 and 0.3741; F/F0 (Sf RyR; FLU 3 uM): 0.282 and 0.3083 and 0.312; F/F0 (Sf RyR; FLU 30 uM): 0.2907 and 0.2708 and 0.2786; F/F0 (Sf RyR; FLU 50 uM): 0.5223 and 0.4644 and 0.4746 and 0.282 and 0.2723 and 0.2725; F/F0 (Sf RyR; FLU 100 uM): 0.3008 and 0.2711 and 0.266; F/F0 (Sf RyR; FLU 150 uM): 0.2772 and 0.2807 and 0.3032; F/F0 (Sf RyR; FLU 200 uM): 0.2827 and 0.3427 and 0.3531; EC50 (Sf RyR; n = 3, read-out: EC50): 59.3 nM; EC50 (rRyR1 R4563K): 3.9 µM; fold decreased sensitivity (Spodoptera frugiperda): 5,400 fold; EC50 (chiRyR [4]): 4 ± 1.4 nM; [3H]ryanodine binding (B/Bmax) (chiRyR [4]; FLU 0.010 uM): 0.258 and 0.168 and 0.293 and 0.246; [3H]ryanodine binding (B/Bmax) (chiRyR [4]; FLU 0.100 uM): 0.203 and 0.262 and 0.293 and 0.332; [3H]ryanodine binding (B/Bmax) (chiRyR [4]; FLU 1.000 uM): 0.230 and 0.187 and 0.324; [3H]ryanodine binding (B/Bmax) (chiRyR [4]; FLU 10.000 uM): 0.281 and 0.305 and 0.277 and 0.254; [3H]ryanodine binding (B/Bmax) (chiRyR [4]; FLU 100.000 uM): 0.242 and 0.340 and 0.234 and 0.262; EC50 (rRyR1): 4.5 µM; F/F0 (rRyR1; FLU 0.01 uM): 0.9514 and 0.951 and 0.9574; F/F0 (rRyR1; FLU 0.3 uM): 0.9294 and 0.929 and 0.9697; F/F0 (rRyR1; FLU 1 uM): 0.9591 and 0.9606 and 0.9686; F/F0 (rRyR1; FLU 3 uM): 0.9637 and 0.9616 and 0.9316; F/F0 (rRyR1; FLU 10 uM): 0.9738 and 0.9803 and 0.9687; F/F0 (rRyR1; FLU 30 uM): 0.9272 and 0.9023 and 0.8951; F/F0 (rRyR1; FLU 100 uM): 0.8351 and 0.825 and 0.8009; F/F0 (rRyR1; FLU 150 uM): 0.7879 and 0.7717 and 0.7578; [3H]ryanodine binding (B/Bmax) (chiRyR-I4657M/G4819E [5]; FLU 10.000 uM): 0.017 and 0.021 and 0.023 and 0.012; effect of the double mutation on activity (chiRyR-I4657M/G4819E [5]; [3H]ryanodine binding assay): almost completely abolished; LD50 [6]: 10.4 µM; EC50 (chiRyR [7]): 25.1 nM; F/F0 (chiRyR [7]; FLU 1e-5 uM): 0.9549 and 0.9506 and 0.9676; F/F0 (chiRyR [7]; FLU 0.0001 uM): 0.9787 and 0.9683 and 0.9464; F/F0 (chiRyR [7]; FLU 0.01 uM): 0.8614 and 0.8526 and 0.8697; F/F0 (chiRyR [7]; FLU 0.1 uM): 0.4361 and 0.3436; F/F0 (chiRyR [7]; FLU 1 uM): 0.3549 and 0.3294 and 0.3747; F/F0 (chiRyR [7]; FLU 10 uM): 0.336 and 0.3416 and 0.3434; F/F0 (chiRyR [7]; FLU 50 uM): 0.3259 and 0.3223 and 0.3318; F/F0 (chiRyR [7]; FLU 100 uM): 0.36 and 0.3376 and 0.3503; EC50 (Sf RyR_I4734M/G4891E): > 300 µM; F/F0 (Sf RyR_I4734M/G4891E; FLU 0.1 uM): 0.9354 and 1.022 and 1.001; F/F0 (Sf RyR_I4734M/G4891E; FLU 1 uM): 1.08 and 0.9898 and 1.013; F/F0 (Sf RyR_I4734M/G4891E; FLU 10 uM): 0.9775 and 0.9916 and 0.9858; F/F0 (Sf RyR_I4734M/G4891E; FLU 50 uM): 0.9682 and 0.9415 and 0.9568; F/F0 (Sf RyR_I4734M/G4891E; FLU 100 uM): 0.9687 and 0.9673 and 0.985; F/F0 (Sf RyR_I4734M/G4891E; FLU 150 uM): 1.01 and 0.9761 and 1.006; F/F0 (Sf RyR_I4734M/G4891E; FLU 200 uM): 1.016 and 0.9681 and 1.012
